Measured values taken from patent US20250136650A1, “COMPOSITIONS AND METHODS FOR DNA BINDING AND TRANSCRIPTIONAL REGULATION” (THE UNIVERSITY OF CHICAGO, priority 2021, published 2025).
Read-outs that look alike come from different tables or passages of the source.

Experiments:
[1] = tested on: SUM159 cells, HRE-regulated genes; assay: qPCR of hypoxia-induced genes, SUM159; type: cell-based; conditions: SUM159, 20 μM, 24 hours
Description: Real-Time PCR. mRNA was extracted using RNeasy plus Mini Kit (Qiagen). 1.5 μg mRNA sample was reverse transcribed into cDNA using a reverse transcription kit (Invitrogen A48570) and then subjected to SYBR-green based real-time PCR analysis (Invitrogen A25741). Primers used: […]

[2] = LCMS detection of STR22 in blood after injection; type: in vivo, mouse; conditions: healthy mice, IP and IV injections
Description: STR22 at various provided concentrations were added to 10× diluted plasma then added to 4× volume of methanol, centrifuged and used for LCMS detection (FIG. 112). […] Blood was collected through submandibular bleed at different time points and analyze via established extraction and LCMS methods. […] Body weight change after a single injection of STR22 through intravenous (IV) or subcutaneous (Sub) was also measured.

[3] = tested on: HIF1α; assay: Western blot of HIF1α under hypoxia, MDA-MB-231; type: cell-based, human; conditions: MDA-MB-231, hypoxia
Description: To study the effects of STR22 on hypoxia-induced gene transcription factor DNA binding and target gene expression, the induction of HIF1α and downstream HRE-target genes like VEGFA, PDK1, PGK1 and GLUT1 in response to acute hypoxia (e.g., 1% 02 for 6 hr) was validated.
Immunoblotting. Following indicated treatments, cells were first washed with ice-cold PBS. Whole-cell extracts were prepared by directly lysing cells with Laemmli sample buffer (Bio-rad, 1610747) supplemented with 2-Mercaptoethanol (Gibco, 21985023), protease inhibitor (Roche, 4693159001), PMSF (Roche, 10837091001) and phosphatase inhibitor (GB-450) at 4° C. Finally, protein samples were boiled at 95° C. for 5 mins. Western blotting was performed using antibodies for XBP1 (Biolegend, 9D11A43), HIF1α (Novus Biologicals, NB100-479), GAPDH (Santa Cruz Biotech, sc-32233) and α-tubulin (Invitrogen, MA1-19401) were used. Blots were imaged using Li—COR Odyssey Fc.

[4] = tested on: UPRE consensus sequence; assay: Competitive EMSA with unlabeled UPRE consensus oligo; type: binding
Description: The DNA binding dimer STR22 (shown in FIG. 21 and FIG. 27) was synthesized. STR22 was subjected to EMSA to measure binding to either the UPR element (UPRE) or AP-1 binding site (AP-1).
Electrophoretic Mobility Shift Assays (EMSAs): For direct DNA binding experiments, STRs were serially diluted at 10× concentration in water and then 1 μL of STR solution was added to 9 μL of 5 nM IRD700-labeled DNA probe bearing either a UPRE or AP-1 motif in a final 1×binding buffer (20 mM HEPES pH 8.0, 150 mM NaCl, 5% glycerol, 1 mM EDTA, 2 mM MgCl2, 0.5 mg/mL BSA, 1 mM DTT, 0.05% NP-40). Samples were incubated for 1 hr at RT. 5 μL of each reaction was loaded on an 8% acrylamide, 0.5×TBE gel equilibrated to 4° C. Samples were resolved for 60 min at 110 V and 4° C. with 0.5×TBE+1 mM MgCl2 running buffer. Gels were pre-run at 110 V for 15 min prior to sample loading. For competition experiments, 30 or 60 nM STRs and 5 nM labeled UPRE probe were incubated with 0, 7.8, 13, 21.6, 36, 60 or 100 nM unlabeled competitor oligo for 1 hr at RT. Gels were imaged using a Li—COR Odyssey. ImageJ was used to quantify band intensity and the fraction of bound DNA was calculated by dividing the band intensity of bound DNA by the band intensity of free DNA from the vehicle treated lane. A four-parameter dose-response curve fit to a plot of normalized fraction bound DNA vs. log STR concentration yielded an the apparent KD. Mobility shift data were excluded from analysis when higher order binding species were observed.

[5] = tested on: MDA-MB-231 tumors; assay: MDA-MB-231 mammary fat pad xenograft in nude mice; type: in vivo, mouse
Text: Moreover, hypoxia-induced gene signatures have also been associated with poor disease outcomes in TNBC patients^41,42. Given these associations, the inventors sought to determine how STR22 antagonism of HIF1α-dependent signaling would affect TNBC cell phenotypes in cell culture and in vivo. […] Therefore, the inventors sought to determine whether STR22 treatment would affect the growth of TNBC cells in the in vivo context of tumor xenografts. To do so, the inventors generated MDA-MB-231 xenografts in the mammary fat pads of nude mice; after tumors reached 100 mm^3-a size previously shown capable of creating hypoxic microenvironments^43-matched cohorts (n=10) were treated once every three days with intratumoral injections of STR22 or saline vehicle alone (FIG. 104C). […] A separate study using fewer MDA-MB-231 cells to generate xenografts replicated these findings ([…]). […] Mouse Xenograft Studies. […] Tumor growth was monitored twice a week using digital caliper measurements in two dimensions (A, B) to estimate volume. Tumor volume was calculated as: (A*B^2)/2, where B is the […] diameter and A is the diameter perpendicular to B. Tumor growth (V/V0) or final volume/mass was shown as mean+/-s.e.m. with P values determined by multiple unpaired t-tests. […]

XBP1-derived stapled dimer: RRK^KNR^AAQTARDRKKA#LSELEQQVVDLE linked to RRK^KNR^AAQTARDRKKARLSEL#QQVVDLE; FIG. 27 [STR22]
hypoxia-induced gene expression (qPCR) [1]: inhibited this induction
detection in blood [2]: can be detected in blood
induction of HIF1α protein [3]: did not affect the induction of HIF1α protein
competition by excess unlabeled UPRE oligonucleotide [4]: potently competed with excess unlabeled UPRE oligonucleotide
Ki ([4]; read-out: Ki for the consensus sequence (EMSA)): 28.6 nM
Ki ([4]; unit inferred, read-out: Ki, consensus sequence (FIG. 3 legend)): 28.6 nM
HIF1α-dependent target gene expression in tumors (qPCR) ([5]; 24 hours after last injection): inhibition of hypoxia-induced gene expression
tumor volume ([5]; nude mice, intratumoral injections, about three weeks): significantly inhibited
